Reference: patent US11083725B2 (priority 2014, dated 2021)

Test system: NHBE cells
Test: Biolog metabolic array: substrate use by NHBE cells with or without CA09 infection
Format: cell-based, human
Conditions: for Substrate use, 590 nm absorbance normalized to zero hour, 0 hr: Biolog PMM2, 0 hr; for Substrate use, 590 nm absorbance normalized to zero hour, 1 hr: Biolog PMM2, 1 hr; for Substrate use, 590 nm absorbance normalized to zero hour, 7 hr: Biolog PMM2, 7 hr; for Substrate use, 590 nm absorbance normalized to zero hour, 5 hr: Biolog PMM2, 5 hr
[1] = Control (uninfected) NHBE cells
[2] = Virus (CA09-infected, MOI 1) NHBE cells
[3] = Virus: CA09-infected NHBE cells, MOI 1, Biolog PMM2
[4] = Virus (CA09, MOI 1) infected NHBE cells

Glycogen
590 nm absorbance normalized to zero hour (substrate use), 0 hr [1]: 1.00
590 nm absorbance normalized to zero hour (substrate use), 1 hr [1]: 1.61
590 nm absorbance normalized to zero hour (substrate use), 4 hr [1]: 2.80
590 nm absorbance normalized to zero hour (substrate use), 6 hr [1]: 4.32
590 nm absorbance normalized to zero hour (substrate use), 8 hr [1]: 4.85
590 nm absorbance normalized to zero hour (substrate use), 9 hr [1]: 4.87
590 nm absorbance normalized to zero hour (substrate use), 10 hr [1]: 4.50
590 nm absorbance normalized to zero hour (substrate use), 11 hr [1]: 5.01
Substrate use, 590 nm absorbance normalized to zero hour, 0 hr [1]: 1.00
Substrate use, 590 nm absorbance normalized to zero hour, 1 hr [1]: 1.61
Substrate use, 590 nm absorbance normalized to zero hour, 3 hr (Control (uninfected) NHBE cells, Biolog PMM2, 3 hr): 2.58
Substrate use, 590 nm absorbance normalized to zero hour, 7 hr [1]: 4.20
590 nm absorbance normalized to zero hour (substrate use), 0 hr [2]: 1.00
590 nm absorbance normalized to zero hour (substrate use), 1 hr [2]: 1.68
590 nm absorbance normalized to zero hour (substrate use), 2 hr [2]: 2.26
590 nm absorbance normalized to zero hour (substrate use), 3 hr [2]: 2.71
590 nm absorbance normalized to zero hour (substrate use), 4 hr [2]: 2.92
590 nm absorbance normalized to zero hour (substrate use), 5 hr [2]: 3.70
590 nm absorbance normalized to zero hour (substrate use), 7 hr [2]: 4.74
590 nm absorbance normalized to zero hour (substrate use), 8 hr [2]: 5.48
590 nm absorbance normalized to zero hour (substrate use), 9 hr [2]: 3.99
590 nm absorbance normalized to zero hour (substrate use), 10 hr [2]: 4.33
590 nm absorbance normalized to zero hour (substrate use), 11 hr [2]: 4.63
590 nm absorbance normalized to zero hour (substrate use), 0 hr [3]: 1.00
590 nm absorbance normalized to zero hour (substrate use), 1 hr [3]: 1.68
590 nm absorbance normalized to zero hour (substrate use), 2 hr [3]: 2.26
590 nm absorbance normalized to zero hour (substrate use), 3 hr [3]: 2.71
590 nm absorbance normalized to zero hour (substrate use), 4 hr [3]: 2.92
590 nm absorbance normalized to zero hour (substrate use), 5 hr [3]: 3.70
590 nm absorbance normalized to zero hour (substrate use), 7 hr [3]: 4.74
590 nm absorbance normalized to zero hour (substrate use), 8 hr [3]: 5.48
590 nm absorbance normalized to zero hour (substrate use), 9 hr [3]: 3.99
590 nm absorbance normalized to zero hour (substrate use), 10 hr [3]: 4.33
590 nm absorbance normalized to zero hour (substrate use), 11 hr [3]: 4.63

OC[C@@H](O)[C@H](O)[C@@H](O)CO [Xylitol]
590 nm absorbance normalized to zero hour (substrate use), 1 hr [1]: 1.02
590 nm absorbance normalized to zero hour (substrate use), 2 hr [1]: 1.53
590 nm absorbance normalized to zero hour (substrate use), 3 hr [1]: 1.57
590 nm absorbance normalized to zero hour (substrate use), 4 hr [1]: 1.01
590 nm absorbance normalized to zero hour (substrate use), 6 hr [1]: 0.40
590 nm absorbance normalized to zero hour (substrate use), 8 hr [1]: 1.49
590 nm absorbance normalized to zero hour (substrate use), 9 hr [1]: 1.02
590 nm absorbance normalized to zero hour (substrate use), 10 hr [1]: 0.97
590 nm absorbance normalized to zero hour (substrate use), 11 hr [1]: 0.97
Substrate use, 590 nm absorbance normalized to zero hour, 1 hr [1]: 1.02
Substrate use, 590 nm absorbance normalized to zero hour, 5 hr [1]: 1.51
Substrate use, 590 nm absorbance normalized to zero hour, 7 hr [1]: 1.01
Substrate use, 590 nm absorbance normalized to zero hour, 1 hr [4]: 1.69
Substrate use, 590 nm absorbance normalized to zero hour, 5 hr [4]: 3.95
Substrate use, 590 nm absorbance normalized to zero hour, 7 hr [4]: 4.50
590 nm absorbance normalized to zero hour (substrate use), 1 hr [2]: 1.69
590 nm absorbance normalized to zero hour (substrate use), 2 hr [2]: 2.39
590 nm absorbance normalized to zero hour (substrate use), 3 hr [2]: 3.14
590 nm absorbance normalized to zero hour (substrate use), 4 hr [2]: 3.34
590 nm absorbance normalized to zero hour (substrate use), 6 hr [2]: 4.25
590 nm absorbance normalized to zero hour (substrate use), 8 hr [2]: 4.55
590 nm absorbance normalized to zero hour (substrate use), 9 hr [2]: 5.13
590 nm absorbance normalized to zero hour (substrate use), 10 hr [2]: 4.85
590 nm absorbance normalized to zero hour (substrate use), 11 hr [2]: 5.48

OC[C@H]1O[C@H](OCC2O[C@@H](O)[C@H](O)[C@@H](O)[C@@H]2O)[C@H](O)[C@@H](O)[C@H]1O (stereo partly drawn) [D-Melibiose]
590 nm absorbance normalized to zero hour (substrate use), 0 hr [1]: 1.00
590 nm absorbance normalized to zero hour (substrate use), 1 hr [1]: 0.88
590 nm absorbance normalized to zero hour (substrate use), 2 hr [1]: 1.14
590 nm absorbance normalized to zero hour (substrate use), 3 hr [1]: 1.40
590 nm absorbance normalized to zero hour (substrate use), 4 hr [1]: 1.44
590 nm absorbance normalized to zero hour (substrate use), 6 hr [1]: 1.81
590 nm absorbance normalized to zero hour (substrate use), 8 hr [1]: 1.80
590 nm absorbance normalized to zero hour (substrate use), 9 hr [1]: 2.05
590 nm absorbance normalized to zero hour (substrate use), 10 hr [1]: 2.19
590 nm absorbance normalized to zero hour (substrate use), 11 hr [1]: 1.80
Substrate use, 590 nm absorbance normalized to zero hour, 0 hr [1]: 1.00
Substrate use, 590 nm absorbance normalized to zero hour, 1 hr [1]: 0.88
Substrate use, 590 nm absorbance normalized to zero hour, 5 hr [1]: 1.69
Substrate use, 590 nm absorbance normalized to zero hour, 7 hr [1]: 1.88
Substrate use, 590 nm absorbance normalized to zero hour, 0 hr [4]: 1.00
Substrate use, 590 nm absorbance normalized to zero hour, 1 hr [4]: 3.65
Substrate use, 590 nm absorbance normalized to zero hour, 5 hr [4]: 3.62
Substrate use, 590 nm absorbance normalized to zero hour, 7 hr [4]: 3.59
590 nm absorbance normalized to zero hour (substrate use), 0 hr [2]: 1.00
590 nm absorbance normalized to zero hour (substrate use), 1 hr [2]: 3.65
590 nm absorbance normalized to zero hour (substrate use), 2 hr [2]: 3.76
590 nm absorbance normalized to zero hour (substrate use), 3 hr [2]: 3.77
590 nm absorbance normalized to zero hour (substrate use), 4 hr [2]: 3.78
590 nm absorbance normalized to zero hour (substrate use), 6 hr [2]: 3.58
590 nm absorbance normalized to zero hour (substrate use), 8 hr [2]: 3.20
590 nm absorbance normalized to zero hour (substrate use), 9 hr [2]: 1.54
590 nm absorbance normalized to zero hour (substrate use), 10 hr [2]: 1.54
590 nm absorbance normalized to zero hour (substrate use), 11 hr [2]: 1.63
